According to ChEMBL document CHEMBL5518186, “Discovery of the cereblon-recruiting tubulin PROTACs effective in overcoming Taxol resistance in vitro and in vivo” (Eur J Med Chem, 2024):
The source made the active and inactive calls. The rule behind the calls is not given here.

Columns and labels:
[1] = molecular target: T1, Protein cereblon/Tubulin beta-3 chain (Homo sapiens, UniProt Q13509+Q96SW2); test: Protac activity at CRBN/beta3-tubulin in human A549 cells assessed as reduction in beta3-tubulin level at 0.01 to 1 uM incubated for 48 hrs by immunoblotting analysis; type: cell-based; settings: dose 0.01-1 µM
T1 sequence (Q13509 whole entry, looked up): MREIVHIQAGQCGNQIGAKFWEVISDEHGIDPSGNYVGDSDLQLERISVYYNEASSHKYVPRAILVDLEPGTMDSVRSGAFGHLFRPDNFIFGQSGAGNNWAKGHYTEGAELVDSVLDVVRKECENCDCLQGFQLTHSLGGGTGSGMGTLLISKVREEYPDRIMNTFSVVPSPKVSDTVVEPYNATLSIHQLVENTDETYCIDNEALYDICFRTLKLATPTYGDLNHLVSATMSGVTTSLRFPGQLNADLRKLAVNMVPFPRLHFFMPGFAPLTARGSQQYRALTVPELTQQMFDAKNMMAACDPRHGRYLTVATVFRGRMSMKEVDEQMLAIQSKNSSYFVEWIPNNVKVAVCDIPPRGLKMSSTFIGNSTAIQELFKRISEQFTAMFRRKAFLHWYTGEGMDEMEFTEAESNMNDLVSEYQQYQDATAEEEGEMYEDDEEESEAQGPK
T1 sequence (Q96SW2 whole entry, looked up): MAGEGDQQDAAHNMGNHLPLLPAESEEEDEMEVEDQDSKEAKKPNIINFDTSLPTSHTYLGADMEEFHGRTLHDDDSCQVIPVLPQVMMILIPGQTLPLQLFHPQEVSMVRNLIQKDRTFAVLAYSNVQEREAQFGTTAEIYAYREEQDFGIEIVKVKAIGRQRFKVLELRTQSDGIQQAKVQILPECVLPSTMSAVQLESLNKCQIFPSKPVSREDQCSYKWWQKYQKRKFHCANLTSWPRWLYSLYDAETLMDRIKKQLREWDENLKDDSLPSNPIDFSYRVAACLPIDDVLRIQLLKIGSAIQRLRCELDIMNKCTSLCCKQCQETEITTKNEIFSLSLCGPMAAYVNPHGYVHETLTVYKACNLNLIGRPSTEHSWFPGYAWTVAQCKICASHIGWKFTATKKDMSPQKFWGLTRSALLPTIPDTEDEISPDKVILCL

[2] = molecular target: T2, Protein cereblon/Tubulin beta (Homo sapiens) (UniProt P68371+Q9H4B7+Q13509+P04350+Q3ZCM7+P07437+Q13885+Q9BVA1+Q9BUF5+Q96SW2+A6NNZ2); test: Protac activity at CRBN/beta-tubulin in human A549/Taxol cells assessed as reduction in beta-tubulin level at 0.25 uM pretreated with pomalidomide for 2 hrs followed by compound addition and measured after 48 hrs by immunoblotting analysis; type: cell-based
[3] = system: A549/TR; test: Induction of cell cycle arrest in human A549/Taxol cells assessed as accumulation of cells at G0/G1 phase at 0.002 uM incubated for 24 hrs by PI staining based flow cytometry analysis (reference value: 77.86%); type: functional
[4] = molecular target: T2, Protein cereblon/Tubulin beta (Homo sapiens); test: Protac activity at CRBN/beta-tubulin in human HepG2 cells assessed as reduction in beta-tubulin level at 10 to 1000 nM incubated for 48 hrs by immunoblotting analysis; type: cell-based; settings: dose 10-1000 nM
[5] = molecular target: T1, Protein cereblon/Tubulin beta-3 chain; test: Protac activity at CRBN/beta3-tubulin in human A549 cells assessed as reduction in beta3-tubulin level at 0.25 uM pretreated with pomalidomide for 2 hrs followed by compound addition and measured after 24 hrs by immunoblotting analysis; type: cell-based
[6] = molecular target: T3, Protein cereblon-alpha tubulin (Homo sapiens) (UniProt P0DPH7+P68366+Q71U36+P68363+Q9BQE3+Q6PEY2+A6NHL2+Q9NY65+Q96SW2); test: Protac activity at CRBN/alpha-tubulin in human MCF7 cells assessed as reduction in alpha-tubulin level at 10 to 1000 nM incubated for 48 hrs by immunoblotting analysis; type: cell-based; settings: dose 10-1000 nM
[7] = molecular target: T2, Protein cereblon/Tubulin beta (Homo sapiens); test: Protac activity at CRBN/beta-tubulin in human A549 cells assessed as reduction in beta-tubulin level at 0.25 uM pretreated with CA-4 for 2 hrs followed by compound addition and measured after 24 hrs by immunoblotting analysis; type: cell-based
[8] = molecular target: T2, Protein cereblon/Tubulin beta (Homo sapiens); test: Protac activity at CRBN/beta-tubulin in human A549 cells assessed as reduction in beta-tubulin level at 0.25 uM pretreated with MG-132 followed by compound addition and measured after 24 hrs by immunoblotting analysis; type: cell-based
[9] = system: A549; test: Induction of apoptosis in human A549 cells assessed as increase in apoptotic rate at 0.01 uM incubated for 48 hrs by Annexin V-FITC/PI staining based flow cytometry analysis (reference value: 1.3%); type: functional
[10] = molecular target: T1, Protein cereblon/Tubulin beta-3 chain; test: Protac activity at CRBN/beta3-tubulin in human MGC-803 cells assessed as reduction in beta3-tubulin level at 10 to 1000 nM incubated for 48 hrs by immunoblotting analysis; type: cell-based; settings: dose 10-1000 nM
[11] = system: A549/TR; test: Induction of cell cycle arrest in human A549/Taxol cells assessed as accumulation of cells at G2/M phase at 0.05 uM incubated for 24 hrs by PI staining based flow cytometry analysis (reference value: 17.02%); type: functional
[12] = molecular target: T3, Protein cereblon-alpha tubulin (Homo sapiens); test: Protac activity at CRBN/alpha-tubulin in human A549 cells assessed as reduction in alpha-tubulin level at 0.25 uM by immunoblotting analysis; type: cell-based; settings: time 6-72 hrs, TDE = time-dependent effect
[13] = molecular target: T3, Protein cereblon-alpha tubulin (Homo sapiens); test: Protac activity at CRBN/alpha-tubulin in human A549 cells assessed as reduction in alpha-tubulin level at 0.25 uM pretreated with pomalidomide for 2 hrs followed by compound addition and measured after 24 hrs by immunoblotting analysis; type: cell-based
[14] = molecular target: T1, Protein cereblon/Tubulin beta-3 chain; test: Protac activity at CRBN/beta3-tubulin in human A549 cells assessed as reduction in beta3-tubulin level at 0.25 uM pretreated with MG-132 followed by compound addition and measured after 24 hrs by immunoblotting analysis; type: cell-based
[15] = molecular target: T2, Protein cereblon/Tubulin beta (Homo sapiens); test: Protac activity at CRBN/beta-tubulin in human HeLa cells assessed as reduction in beta-tubulin level at 10 to 1000 nM incubated for 48 hrs by immunoblotting analysis; type: cell-based; settings: dose 10-1000 nM
[16] = molecular target: T1, Protein cereblon/Tubulin beta-3 chain; test: Protac activity at CRBN/beta3-tubulin in human MCF7 cells assessed as reduction in beta3-tubulin level at 10 to 1000 nM incubated for 48 hrs by immunoblotting analysis; type: cell-based; settings: dose 10-1000 nM
[17] = system: A549; test: Induction of cell cycle arrest in human A549 cells assessed as accumulation of cells at G2/M phase at 0.01 uM incubated for 24 hrs by PI staining based flow cytometry analysis (reference value: 31.86%); type: functional
[18] = molecular target: T1, Protein cereblon/Tubulin beta-3 chain; test: Protac activity at CRBN/beta3-tubulin in human A549 cells assessed as reduction in beta3-tubulin level at 0.25 uM pretreated for 48 hrs followed by compound washout and measured after 24 hrs by immunoblotting analysis; type: cell-based
[19] = system: A549; test: Induction of apoptosis in human A549 cells assessed as increase in apoptotic rate at 0.05 uM incubated for 48 hrs by Annexin V-FITC/PI staining based flow cytometry analysis (reference value: 1.3%); type: functional
[20] = system: A549; test: Inhibition of cell growth in human A549 cells incubated for 72 hrs by SRB method; type: functional, cell-based
[21] = molecular target: T1, Protein cereblon/Tubulin beta-3 chain; test: Protac activity at CRBN/beta3-tubulin in human A549 cells assessed as reduction in beta3-tubulin level at 0.25 uM by immunoblotting analysis; type: cell-based; settings: time 6-72 hrs, TDE = time-dependent effect
[22] = system: A549/TR; test: Inhibition of colony formation in human A549/Taxol cells incubated for 24 hrs followed by media replacement at every 3 days for 14 days by crystal violet staining based assay; type: functional, cell-based; settings: dose 2-50 nM, time 14.0 day
[23] = molecular target: T1, Protein cereblon/Tubulin beta-3 chain; test: Protac activity at CRBN/beta3-tubulin in human A549/Taxol cells assessed as reduction in beta3-tubulin level at 0.25 uM pretreated with pomalidomide for 2 hrs followed by compound addition and measured after 48 hrs by immunoblotting analysis; type: cell-based
[24] = molecular target: Tubulin (Homo sapiens) (UniProt P68371+Q9H4B7+P0DPH7+P68366+Q13509+Q71U36+P04350+Q3ZCM7+P07437+P68363+Q9BQE3+Q6PEY2+Q13885+Q9BVA1+Q9BUF5); test: Inhibition of microtubule polymerization in human HepG2 cells by immunofluorescence assay; type: cell-based
[25] = molecular target: T1, Protein cereblon/Tubulin beta-3 chain; test: Protac activity at CRBN/beta3-tubulin in human A549 cells assessed as reduction in beta3-tubulin level at 0.25 uM after 72 hrs by immunoblotting analysis; type: cell-based
[26] = molecular target: T1, Protein cereblon/Tubulin beta-3 chain; test: Protac activity at CRBN/beta3-tubulin in human A549/Taxol cells assessed as reduction in beta3-tubulin level at 0.25 uM pretreated with CA-4 for 2 hrs followed by compound addition and measured after 48 hrs by immunoblotting analysis; type: cell-based
[27] = system: HUVEC; test: Antiangiogenic activity in HUVECs assessed as reduction in tube area at 2.5 nM incubated for 6 to 8 hrs by inverted microscopic analysis; type: functional, cell-based; settings: Homo sapiens, time 6-8 hrs
[28] = system: A549/TR; test: Induction of cell cycle arrest in human A549/Taxol cells assessed as accumulation of cells at S phase at 0.01 uM incubated for 24 hrs by PI staining based flow cytometry analysis (reference value: 2.85%); type: functional
[29] = molecular target: T1, Protein cereblon/Tubulin beta-3 chain; test: Protac activity at CRBN/beta3-tubulin in human A549/Taxol cells assessed as reduction in beta3-tubulin level at 0.25 uM pretreated with MG-132 followed by compound addition and measured after 48 hrs by immunoblotting analysis; type: cell-based

Activity [1]: Active
Activity [2]: inactive
Activity [4]: Active
Activity [5]: inactive
Activity [6]: Active
Activity [7]: inactive
Activity [8]: inactive
Activity [10]: Active
Activity [12]: Tde
Activity [13]: inactive
Activity [14]: inactive
Activity [15]: Active
Activity [16]: Active
Activity [18]: inactive
IC50 ([20]; A549, 72 h): 10 nM
Activity [21]: Tde
Activity [23]: inactive
inhibition [24]: Active
Activity [25]: inactive
Activity [26]: inactive
Activity [29]: inactive
Structure (SMILES): COc1ccc(/C=C\c2cc(OC)c(OC)c(OC)c2)cc1OC(=O)CCCNc1cccc2c1C(=O)N(C1CCC(=O)NC1=O)C2=O (stereo not given)
Activity [3]: 67.61%
Activity [9]: 23.1%
Activity [11]: 66.57%
Activity [17]: 68.36%
Activity [19]: 48.2%
inhibition [20]: Dose-Dependent Effect
inhibition [22]: Dose-Dependent Effect
Activity [27]: Active
Activity [28]: 10.77%
